Data from patent US8865672B2, “Prevention of tissue ischemia and related methods” (The United States of America, as represented by the …, priority 2006, dated 2014).

What was measured:
[1] = system: vascular cell outgrowth from muscle explants; assay: Explant invasion assay in 3D collagen; format: cell-based, mouse; details: TSP1 1 μg/ml
Experimental: Muscle biopsies from the pectoralis major muscle of 8 to 12 week old wild type or transgenic mice were harvested and explanted into 100 μl of type I collagen gel in 96-well tissue culture plates as described (Isenberg et al., Matrix Biol 24:110-123, 2005). Following gelation, the embedded explants were overlayed with 75 μl of EGM+2% FCS in the presence or absence of a dose range of DETA/NO (0.01-1000 μM) and other indicated treatments and then incubated at 37° C. and 5% CO2 for 7 days, at which time maximum vascular cell migration through the matrix was measured.

[2] = system: murine ASMC (WT, CD36 null, CD47 null); assay: Intracellular cGMP in murine ASMC; format: cell-based, mouse
Summary of the method: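 Aortic smooth muscle cells from wild-type C57Bl/6, CD36-null or CD47-null mice, passage 1–4, plated overnight in full growth medium. Weaned to SM-GM + 0.1% BSA before treatment with NO donor and other agents. Intracellular cGMP measured by enzyme immunoassay.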

human platelets = assay: cGMP in human platelets; format: cell-based
Experimental: Fresh human platelets at 2×10^5 platelets/μl in Tyrode's buffer or PRP were pre-incubated with the indicated agents for 15 minutes and then challenged with DEA/NO for the indicated time interval at room temperature and total cGMP determined via immunoassay (Amersham, GE Healthcare, Buckinghamshire, UK). Murine WT and TSP1-null platelets were treated with DEA/NO and cGMP flux measured.

VASP = assay: Phospho-Ser239 VASP Western blotting in platelets; format: cell-based, human; details: 8Br-cGMP 100 μM, TSP1 2.2 nM
Experimental: Washed human platelets (resuspended in Tyrode's buffer to 3×10^8 platelets/mL to a final volume of 0.5 mL) were incubated at 37° C. for 30 minutes before treatment. TSP1 was added 15 minutes prior to treatment. Immediately following treatment, platelets were pelleted at 13,000×g at 4° C. for 15 seconds and resuspended in 1 mL of a lysis buffer containing 10 mM Tris-HCl (pH 7.5), 150 mM NaCl, 1 mM EDTA, 1 mM Na3VO4, 40 mM NaF, 1 μg/mL aprotinin, 1 μg/mL leupeptin, 1 mM phenylmethysulfonylfluoride and 1% […]. This suspension was placed at 4° C. with gentle agitation for 5 minutes before centrifugation at 13000×g for 5 minutes at 4° C. 5 μg lysates were electrophoresed on 4-12% Bis-Tris NuPAGE gels, transferred to Immobilon PVDF membranes and probed with a rabbit polyclonal antiserum against Serine 239-phosphorylated VASP (Santa Cruz Biotechnology, Santa Cruz, Calif.).

cGK-I = target: T1, cGK-I (Homo sapiens, UniProt Q13976); assay: cGK in vitro kinase assay of platelet lysates; format: biochemical
T1 construct: endogenous in cells; host or cells: washed human platelets, treated intact, then lysed
T1 sequence (Q13976 1-686 isoform Q13976-2): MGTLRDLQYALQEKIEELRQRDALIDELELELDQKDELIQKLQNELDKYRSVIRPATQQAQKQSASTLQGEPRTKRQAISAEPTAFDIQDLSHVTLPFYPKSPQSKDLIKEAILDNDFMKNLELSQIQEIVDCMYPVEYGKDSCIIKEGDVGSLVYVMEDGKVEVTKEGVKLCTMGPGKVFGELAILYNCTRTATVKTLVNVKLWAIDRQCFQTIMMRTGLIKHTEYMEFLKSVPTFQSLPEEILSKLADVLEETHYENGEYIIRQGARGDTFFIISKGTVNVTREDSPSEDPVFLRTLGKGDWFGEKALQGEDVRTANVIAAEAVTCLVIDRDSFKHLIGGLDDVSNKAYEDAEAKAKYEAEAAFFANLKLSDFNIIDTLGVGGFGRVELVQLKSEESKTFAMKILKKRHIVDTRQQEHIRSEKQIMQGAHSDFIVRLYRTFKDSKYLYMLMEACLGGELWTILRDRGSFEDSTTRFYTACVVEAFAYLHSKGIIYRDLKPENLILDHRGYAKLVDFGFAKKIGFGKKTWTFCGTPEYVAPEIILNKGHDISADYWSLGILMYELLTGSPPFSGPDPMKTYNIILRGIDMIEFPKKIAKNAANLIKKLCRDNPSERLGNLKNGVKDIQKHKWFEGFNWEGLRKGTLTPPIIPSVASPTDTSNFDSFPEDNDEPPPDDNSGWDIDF
Experimental: Platelets were washed as described above and resuspended in Tyrode's buffer (3×10^8 platelets/mL). Platelets were preincubated with TSP1 (2.2 nM) or Rp-8-pCPT-cGMP for 15 minutes prior to treatment with 8-Br-cGMP (100 μM) or NO (DEA/NO 10 μM) for 2 minutes. Treatment was stopped by placing the platelets on ice. Immediately following treatment, platelets were pelleted by centrifugation at 13,000×g at 4° C. for 15 seconds and resuspended in a lysis buffer containing 10 mM HEPES (pH 7.4), 1 mM EDTA, 1 mM 3-Isobutyl-1-methylxanthine, 125 mM KCl, 1 mM phenylmethysulfonylfluoride, 1 μg/ml aprotinin, and 1 μg/ml leupeptin. Resuspended platelets were sonicated on ice 3 times for 10 seconds each before centrifugation at 13,000×g for 5 minutes at 4° C. 100 μg lysate from each sample was incubated at 25° C. for 20 minutes with kinase buffer (150 μM Arg-Lys-Arg-Ser-Arg-Ala-Glu (SEQ ID NO: 17) peptide substrate (Bachem, King of Prussia, Pa.)), 10 mM HEPES pH 7.4, 35 mM β-glycerophosphate, 4 mM MgCl2, 5 μM Rp-8 pCPT-cAMPS, 0.5 mM EDTA, […] [γ-32P]ATPS (Sigma-Aldrich, St. Louis, Mo.)). Kinase assay reactions were terminated by spotting 50 μL of reaction mixture onto nitrocellulose. Nitrocellulose spots were washed 5 times each with 100 μL of 0.5% phosphoric acid before analysis with a scintillation counter.

Substance: TSP1: thrombospondin-1 prepared from human platelets
- ability to antagonize NO-stimulated vascular outgrowth ([1]; CD36-null explants): preserved
- ability to antagonize NO-stimulated vascular outgrowth ([1]; CD47-null explants): lost
- NO-stimulated cGMP ([2]; CD36 null MASMC): completely inhibited
- NO-stimulated cGMP ([2]; CD47 null MASMC): did not significantly inhibit
- NO-stimulated cGMP ([2]; WT MASMC): inhibited
- NO-stimulated cGMP flux in platelets (human platelets; PRP, TSP1 2.2 nM): continued to block
- NO stimulated cGMP in platelets (human platelets; washed human platelets in Tyrode's buffer): decreased
- VASP phosphorylation at Ser239 (VASP): inhibited
- 32P-incorporation into cGK-I selective peptide (cGK-I; activation via sGC using DEA/NO in intact platelets): prevented
- 32P incorporation into cGK-I selective peptide (cGK-I; stimulated by 100 μM 8Br-cGMP, TSP1 2.2 nM): inhibited 32P incorporation
